Results taken from patent publication US4914086A, “Method for treating African human and veterinary trypanosomiases” (priority 1987, dated 1990).

System: T. b. brucei EATRO 110
Test: Drug screen, acute EATRO 110 mouse infection (Tables 1, 3)
Format: in vivo, Trypanosoma brucei brucei (in Swiss-Webster mice)
Conditions: for activity in words: 300 mg/kg; for # Cured/Total / % Cured: Table 1, treatment begun 24 h post infection
Excerpt: T. b. brucei EATRO 110 isolate was maintained as described (Bacchi, C. J., H. C. Nathan, S. H. Hutner, P. P. McCann and A. Sjoerdsma; Polyamine metabolism: a potential chemotherapeutic target in trypanosomes. Science 210: 332-334, 1980). It produces an acute, rapidly fatal parasitemia which is lethal to mice 3-5 days after inoculation. Two T. B. brucei strains, TREU 667 and LUMP 1001 developed by Jennings and coworkers (Jennings, F. W., D. D. Whitelaw and G. M. Urquhart; The relationship between duration of infection with Trypanosoma brucei in mice and the efficacy of chemotherapy. Parasitology 75: 143-153, 1977/Jennings, F. W. and G. D. Gray; Relapsed parasitemia following chemotherapy of chronic T. brucei infections in mice and its relation to cerebral trypanosomes; Contr. Microbiol. Immunol. 7 147-154, 1983) were used as CNS models. Both produce infections which are refractory to Berenil® (diminazene aceturate) and develop within 21 days after inoculation. They are not usually fatal until >40 days after inoculation. LUMP 1001 causes a more virulent CNS infection than TREU 667, and is regarded as more difficult to cure (Jennings, F. W. and G. D. Gray. Relapsed parasitemia following chemotherapy of chronic T. brucei infections in mice and its relation to cerebral trypanosomes. Contr. Microbiol. Immunol. 7 147-154, 1983).
Swiss-Webster (25-30 g) mice were used throughout. In the EATRO 110 model, groups of 100 mice were infected (10^5 trypanosomes/mouse) and the infection was allowed to develop 24 hours before commencing therapy. Animals were divided into groups of 5 before treatment. Cured animals survived >30 days beyond deaths of controls. All compounds were administered by i.p. injection.
Other methods as in Table 1.

What does the source list for O=c1ncnc2n([C@H]3O[C@@H](CO)[C@H](O)[C@@H]3O)[nH]cc1-2 (stereo in doubt) [Allopurinol Riboside, reference compound]?
activity in words: completely inactive; # Cured/Total (250 mg/kg i.p.): 0/5; % Cured (250 mg/kg i.p.): 0%

Oc1ncnc2[nH]ncc12 [Allopurinol, reference compound] was tested. Which activity in words did it give?
Its activity in words is “completely inactive”.

And the “# Cured/Total” value (300 mg/kg i.p.)?
The value was 0/5.

What about the “% Cured” value (300 mg/kg i.p.) of the same compound?
Its value is 0%.
